The structures appear in SMILES notation.

We go through two molecules from patent publication US20240261274A1, “TREATMENT OF MYC-DRIVEN CANCERS WITH GSPT1 DEGRADERS” (MONTE ROSA THERAPEUTICS, INC., priority 2021, published 2024).

The test system of series [1] is human cell line NCI-H1155 xenograft. As to the kind of experiment: N-Myc-driven mouse xenograft model, NCI-H1155, compound 210 oral. Type of series: in vivo.
Series [2] deals with NSCLC cell lines expressing high levels of N-Myc (NCI-H1155, ABC-1). As to the kind of experiment: Viability of NSCLC cell lines treated with compound 210. Type of series: cell-based, human. The following applies: compared to low N-Myc lines EBC-1, NCI-H2023. The procedure: GSPT1 was degraded by compound 210 after six hours of treatment in high N-Myc NCI-H1155 and ABC-1 cells with a DC50 of 3 nM and 22 nM, respectively (x-axis represents M concentration of compound 210; y-axis represents the viability in %).

The test system of series [3] is human cell line NCI-H1770 xenograft. As to the kind of experiment: N-Myc-driven mouse xenograft model, NCI-H1770, compound 210 oral. Type of series: in vivo.
Series [4] has as its system DOHH2 lymphoma cell line derived xenograft. In words: DOHH2 lymphoma CDX efficacy study. The conditions noted are these: oral daily 3 mg/kg and 10 mg/kg. Type of series: in vivo, immunodeficient mice. As for the experimental part: Additionally, cell line derived xenograft (CDX) models were produced for lymphoma cell line (DOHH2) in immunodeficient mice. Oral dosing of Compound 345 was performed daily at doses of 3 mg/kg and 10 mg/kg as well as the CHOP combination (a well-known lymphoma treatment regimen) and a no-drug vehicle control. Tumor volumes were measured (mm^3) at regular intervals over the course of up to 30 days depending on the animal.
In vivo efficacy study: NCI-H1155, MM1 S, WSU-DLCL2, DOHH-2 cells were maintained in vitro in individual medium and conditions as recommended by the providers and incubated at 37° C. in an atmosphere of 5% CO2 in air. 0.5 million (NCI-H1155), 10 million (MM1S) or 5 million (WSU-DLCL2 and DOHH-2) cells were resuspended in typically 0.1-0.2 mL of PBS with Matrigel (50:50) and were inoculated into 6-8 weeks old BALB/c nude female (NCI-H115, WSU-DLCL2), NOD/SCID (MM1S) or CB-17SCID (DOHH-2) mice and allowed to grow to 150-200 mm3 in size. […] Tumor volumes were measured at least twice weekly during the treatment period using a caliper and the volume was expressed in mm3 using the formula: V=0.5 a×b2 where a and b were the long and short diameters of the tumor, respectively. […] Data are expressed as the mean±SEM. All data was analyzed using GraphPad Prism 8.1.2 (GraphPad).

For the next series, the system named is L-Myc. As to the kind of experiment: L-Myc levels in SCLC lines after Compound 345 (western blot). The following applies: SCLC lines NCI-H1836 and NCI-H1876. In kind it is cell-based. The text has this:
NCI-H1836 and NCI-H1876 were taken as two representatives of L-Myc high SCLC. Western blot analysis probing for GSPT1 and L-Myc following treatment with Compound 345 as indicated. GAPDH was used as a loading control.
In general terms: In western blotting, separated proteins are transferred to a membrane and probed.

Series [5] concerns patient-derived xenografts. In words: In vivo mouse patient-derived xenograft experiment, survival, Compound 345. The text has this:
FIGS. 14A and 14B: In vivo mouse patient-derived xenograft experiment.
Background: A xenograft is tissue or cells of one species grown in another, often human tumour cells in immunodeficient mice.

The next series concerns MM1 S cells. As to the kind of experiment: Apoptosis assay, caspase 3/7 activity in MM1 S cells. In kind it is cell-based. The following applies: 0 to 30 μM, 48 hours. The procedure:
For the same MM cell line, the effect of Compound 345 on apoptosis was evaluated. MM1 S cells were treated with Compound 345 in culture at increasing concentrations ranging from 0 to 30 μM and a control group was treated with lenalidomide, a well-known MM drug. After 48 hours, fold-change caspase 3/7 activity (a marker of apoptosis) was measured and plotted against concentration of Compound 345 compared to lenalidomide as the control. […] For the same MM cell line, the impact of Compound 345 on cell viability was evaluated. MM1 S cells were treated with Compound 345 in culture at increasing concentrations ranging from 0 to 100 μM. Cell viability was measured as a percentage survival after 72 hours.
Apoptosis assay: MM1S cells were sub-cultures as recommended by the providers (ATCC, DSMZ) and incubated at 37° C., 5% CO2. Briefly, cells were seeded in white 96-well plates (100 μL/well) at a density of 50000 cells/well and incubated overnight at 37° C. with 5% CO2. […] Cell apoptosis was assessed using the Caspase-Glo® 3/7 Assay kit as recommended by the manufacturer (Promega, Cat. No. G8091, Lot. No. 0000385738) and measurements were performed on the EnSpire multimode plate reader (Perkin Elmer). EC50 values were determined using Prism8.1.2 (GraphPad) and the asymmetric (five-parameter) equation and least squares fit.

With `Cc1ccc(NC(=O)OCc2ccc3c(c2)C(=O)N(C2CCC(=O)NC2=O)C3)cc1Cl` (stereo not drawn) [Compound 210], the tumor growth result in series [1] (1 mg/kg once daily PO) is “tumor growth was suppressed for two weeks”; in series [1] (oral administration (PO)), “tumor growth inhibition”; in series [3] (oral administration), “tumor growth inhibition”. Besides, the tumor size entry was “tumor size decreased, became undetectable by day eight and remained so until the end of the study at day 21” in series [1] (3 mg/kg once daily PO); “tumor size decreased, became undetectable by day eight and remained so until the end of the study at day 21” in series [1] (6 mg/kg PO, five days on and nine days off); “tumor size decreased and remained so until the end of the study” in series [3] (3 mg/kg once daily); “tumor size decreased and remained so until the end of the study” in series [3] (6 mg/kg, five days on and nine days off). Besides, the body weight entry in series [1] (oral administration (PO)) and in series [3] (oral administration) was “no body weight loss observed” in each case. Besides, the “sensitivity to treatment (viability)” value in series [2] was “highly sensitive”.

Regarding `O=C1CCC(N2Cc3ccc(COC(=O)Nc4cc(OC(F)(F)F)ccc4F)cc3C2=O)C(=O)N1` (stereo not drawn) [Compound 345, (2-(2,6-dioxopiperidin-3-yl)-3-oxoisoindolin-5-yl)methyl(2-fluoro-5-(trifluoromethoxy)phenyl)carbamate], the tumor volume entry in series [4] is “anti-tumor activity”. The “L-Myc level, timecourse” value with L-Myc was “downregulation of L-Myc”. For the same molecule, the survival result in series [5] (biomarker negative patient-derived xenografts) was “but not in the biomarker negative patient-derived xenografts”; in series [5] (biomarker positive (high N-Myc or L-Myc mRNA expression) patient-derived xenografts), “significantly prolonged survival”. The “fold-change caspase 3/7 activity (apoptosis)” value in the series on MM1 S cells is listed as “strong induction of apoptosis”.
